Results on seven compounds are retold here after patent US4680389A, “Temperature stable crystalline di(1-methyl-2-pyrralidinone) and di(N-formylpyrrolidine) adducts of cephalosporin derivatives” (priority 1986, dated 1987).

Some results are limits rather than exact numbers.

Usually LD50 stands for the dose at which mortality reaches 50%. A higher LD50 goes with lower toxicity.

The nature of data set [1]: Stabilities at elevated temperatures (percent potency loss by HPLC, dry containers). The data set is classed as physicochemical. On the procedure:
Elevated temperature stabilities were determined by storing the preparations in dry containers (1 dram screw cap vials) at temperatures and for time periods as denoted below. Potency losses or gains were determined by HPLC. […] Each compound form tested was prepared in accordance with the example which is designated.

Another data set has as its system Rat. Put plainly: Toxicity data (LD50) in rat. Format: in vivo. To be noted: route not stated. On the procedure:
(§1) Toxicity data (LD50) was determined for the following compounds which are utilized in the instant invention or prepared according to the instant invention.

Data set [2] in a line: Toxicity data (LD50) in rat. Format: in vivo. The note with it: in vivo, route not stated. On the procedure: as §1
The subject of another data set is various organisms. The note with it: cited from earlier work.
The conditions of data set [3]: elevated temperatures (e.g. 45° C. and above), one week, dry powder; 10080 min; cited from earlier work.
The nature of data set [4]: HPLC stability of Example 1 di(1-methyl-2-pyrrolidinone) adduct at 70° C. Format: physicochemical. On the procedure:
1.0 g of the sulfuric acid addition salt of the zwitterion is vigorously slurried in 10 ml of 1-methyl-2-pyrrolidinone (NMP-2) at 25° C.-45° C. The crystalline mass is mixed with 0.49 ml (2.02 molar equivalents) of triethylamine (TEA) over a period of 0.5 to 1.5 hours. The mixture is seeded with 1-methyl-2-pyrrolidinone adduct and vigorously stirred for 6 to 24 hours. The crystals are then separated by vacuum filtration, washed with two 3 ml portions of 1-methyl-2-pyrrolidinone, two 5 ml portions of ether and vacuum dried at 45° to 55° C. for 2 hours.

Data set [5] can be described thus: Stability in aqueous solution. Format: physicochemical. The note with it: 250 mg/ml aqueous solution, ambient pH 4 to 5, at least six hours at 25° C.; 360 min. From the text: These crystalline adducts display acceptable stability when they are placed in solution.

As for `CO/N=C(\C(=O)NC1C(=O)N2C(C(=O)[O-])=C(C[N+]3(C)CCCC3)CSC12)c1csc(N)n1` (centres unmarked) [Zwitterion (Crystalline), 7-[(Z)-2-methoxyimino-2-(2-aminothiazol-4-yl)acetamido]-3-[(1-methyl-1-pyrrolidinium)methyl]-3-cephem-4-carboxylate], the “temperature stability of crystalline vs amorphous form” value in data set [1] was “more temperature stable than the amorphous form”. Further, the “PERCENT LOSS” value came out at 20.0% in data set [1] (37° C., 1 month, 43200 min); 14.2% in data set [1] (45° C., 1 week, 10080 min); 25.6% in data set [1] (56° C., 1 week, 10080 min); 30.0% in data set [1] (56° C., 2 weeks, 20160 min); 13.5% in data set [1] (70° C., 2 days, 2880 min); 20.5% in data set [1] (70° C., 3 days, 4320 min). For the same compound, the degraded at 336 h in data set [1] (dry solid, 45° C., 2 weeks) is 23%.

Turning to `O=CN1CCCC1` [N--Formyl pyrrolidine, N-formyl pyrrolidine], the “Rat LD50” value in the data set on Rat is reported as less than 1000 mg/kg. Besides, the LD50 in data set [2] is greater than 500 mg/kg.

As for `CN1CCCC1=O` [1-Methyl-2-pyrrolidinone, 1-methyl-2-pyrrolidinone], the “Rat LD50” value in the data set on Rat is reported as less than 2500 mg/kg. In data set [2], this compound returned an LD50 greater than 2000 mg/kg.

With `CO/N=C(\C(=O)NC1C(=O)N2C(C(=O)[O-])=C(C[N+]3(C)CCCC3)CSC12)c1csc(N)n1` (centres unmarked) [Zwitterion, 7-[(Z)-2-methoxyimino-2-(2-aminothiazol-4-yl)acetamido]-3-[(1-methyl-1-pyrrolidinium)methyl]-3-cephem-4-carboxylate], in the data set on various organisms (data in U.S. Pat. No. 4,406,899), the “utility against various organisms” value is “broad spectrum utility against various organisms”. Also, the “spectrum of activity compared with ceftazidime and cefotaxime” value with various organisms (zwitterion form vs ceftazidime and cefotaxime) was “broader spectrum activity than ceftazidime and cefotaxime”. Further, the “loss of activity on storage” value in data set [3] is recorded as no less than 30%. The LD50 in data set [2] was found to be 665 mg/kg.

In the case of `CN1CCCC1=O.CN1CCCC1=O.CO/N=C(\C(=O)NC1C(=O)N2C(C(=O)[O-])=C(C[N+]3(C)CCCC3)CSC12)c1csc(N)n1` (centres unmarked) [Di(1-methyl-2-pyrrolidinone) adduct, di(1-methyl-2-pyrrolidinone) adduct of 7-[(Z)-2-methoxyimino-2-(2-aminothiazol-4-yl)acetamido-]3-[(1-methyl-1-pyrrolidinium)methyl]-3-cephem-4-carboxylate], the “PERCENT LOSS” value in data set [1] (37° C., 3 months, 129600 min) was 1.2%; in data set [1] (45° C., 4 weeks, 40320 min), 1.6%; in data set [1] (45° C., 6 weeks, 60480 min), 3.0%; in data set [1] (45° C., 8 weeks, 80640 min), 0-3%; in data set [1] (56° C., 1 week, 10080 min), 2.1%; in data set [1] (56° C., 2 weeks, 20160 min), 3.4%. For the same compound, the “PERCENT LOSS” value in data set [1] (56° C., 4 weeks, 40320 min) was 4.2%; in data set [1] (56° C., 6 weeks, 60480 min), 7.0%; in data set [1] (56° C., 8 weeks, 80640 min), 0.9%; in data set [1] (70° C., 1 day) it was 0%; in data set [1] (70° C., 2 days) it was 2.1%; in data set [1] (70° C., 3 days), 2.1%. The “PERCENT LOSS” value in data set [1] (70° C., 5 days) is 2.1%; in data set [1] (100° C., 1 day), 13-16%. Also, the “HPLC Stability % Loss” value in data set [4] (1 Day) is recorded as 0-2.3%; in data set [4] (3 Days), 5-6.5%. The “Rat LD50” value in the data set with Rat came out at 663 mg/kg. Further, the “potency loss in aqueous solution” value in data set [5] is on record as “less than 10%”.

For the compound `CO/N=C(\C(=O)NC1C(=O)N2C(C(=O)[O-])=C(C[N+]3(C)CCCC3)CSC12)c1csc(N)n1` (centres unmarked), the “PERCENT LOSS” value is given as 0% in data set [1] (37° C., 1 month, 43200 min, listed as Di(NFP) Adduct); 0-3% in data set [1] (45° C., 1 week, 10080 min, listed as Di(NFP) Adduct); 3.5-5.9% in data set [1] (45° C., 4 weeks, 40320 min, listed as Di(NFP) Adduct); 7.1% in data set [1] (56° C., 1 week, 10080 min, listed as Di(NFP) Adduct); 9.3% in data set [1] (56° C., 2 weeks, 20160 min, listed as Di(NFP) Adduct); 1.5% in data set [1] (70° C., 1 day, listed as Di(NFP) Adduct, 1440 min). Further, the “PERCENT LOSS” value in data set [1] (70° C., 3 days, listed as Di(NFP) Adduct, 4320 min) is 0-4.4%. The same compound yielded a degraded at 672 h in data set [1] (dry solid, 56° C., 4 weeks) of 18.1%. The “Rat LD50” value in the data set with Rat (listed as Di(N--formyl pyrrolidine) adduct) turned out to be 495 mg/kg.

With `CO/N=C(\C(=O)NC1C(=O)N2C(C(=O)[O-])=C(C[N+]3(C)CCCC3)CSC12)c1csc(N)n1` (centres unmarked) [Zwitterion (Amorphous), 7-[(Z)-2-methoxyimino-2-(2-aminothiazol-4-yl)acetamido]-3-[(1-methyl-1-pyrrolidinium)methyl]-3-cephem-4-carboxylate, reference compound], the “PERCENT LOSS” value is on record as 34.1% in data set [1] (45° C., 1 week, 10080 min); 71% in data set [1] (45° C., 4 weeks, 40320 min); 49.6% in data set [1] (56° C., 1 week, 10080 min); 34.5% in data set [1] (70° C., 1 day, 1440 min); 46.2% in data set [1] (70° C., 2 days, 2880 min); 55.2% in data set [1] (70° C., 3 days, 4320 min). In addition, the degraded at 24 h in data set [1] (dry solid, 100° C., 1 day) was found to be 100%.
